Source: US10987359B2, “Oxadiazepinone derivatives and methods of treating hepatitis B infections” (priority 2016, dated 2021)
pEC50: −log10 of the molar value.

system: HBV; test: HBV replication inhibition assay (BDNA assay) in HepG2.2.15 cells; format: cell-based; details: HBV replication assay (BDNA assay), HepG2.2.15 cells; read-out: DNA EC50
How it was run: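 HepG2.2.15 cells with stably integrated HBV were treated with serially diluted compounds at 0.5% DMSO for 6 days, with medium and compound refreshed at day 3. Encapsidated HBV DNA from DNase-treated supernatant was quantified by branched DNA assay. EC50 came from % inhibition versus DMSO, fitted non-linearly.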

Structure (SMILES)	pEC50
C[C@@H]1Cc2nn3c(c2CN1C(=O)Nc1cc(Br)c(F)cc1F)C(=O)N(C)OC(CO)C3 (stereo in doubt) [Compound 089_E2, (4R*,9R)—N-(5-bromo-2,4-difluorophenyl)-4-(hydroxymethyl)-2,9-dimethyl-1-oxo-1,4,5,8,9,11-hexahydropyrido[4′,3′:3,4]pyrazolo[5,1-d][1,2,5]oxadiazepine-10(2H)-carboxamide]	7.00 to 9.00
C[C@@H]1Cc2nn3c(c2CN1C(=O)Nc1cc(Cl)c(F)cc1F)C(=O)N(C)OC(CO)C3 (stereo in doubt) [Compound 090_E2, (4R*,9R)—N-(5-chloro-2,4-difluorophenyl)-4-(hydroxymethyl)-2,9-dimethyl-1-oxo-1,4,5,8,9,11-hexahydropyrido[4′,3′:3,4]pyrazolo[5,1-d][1,2,5]oxadiazepine-10(2H)-carboxamide]	7.00 to 9.00
C[C@@H]1Cc2nn3c(c2CN1C(=O)Nc1ccc(F)c(Cl)c1F)C(=O)N(C)OC(CO)C3 (stereo in doubt) [Compound 091_E2, (4R*,9R)—N-(3-chloro-2,4-difluorophenyl)-4-(hydroxymethyl)-2,9-dimethyl-1-oxo-1,4,5,8,9,11-hexahydropyrido[4′,3′:3,4]pyrazolo[5,1-d][1,2,5]oxadiazepine-10(2H)-carboxamide]	7.00 to 9.00
C[C@@H]1Cc2nn3c(c2CN1C(=O)Nc1ccc(F)c(Br)c1)C(=O)N(C)OC(CN(C)C)C3 (stereo in doubt) [Compound 094_D2, (4R*,9R)—N-(3-bromo-4-fluorophenyl)-4-((dimethylamino)methyl)-2,9-dimethyl-1-oxo-1,4,5,8,9,11-hexahydropyrido[4′,3′:3,4]pyrazolo[5,1-d][1,2,5]oxadiazepine-10(2H)-carboxamide]	7.00 to 9.00

same assay, conditions: Hepatitis B virus, HepG2.2.15, HBV replication assay (BDNA assay), HepG2.2.15 cells; read-out: DNA EC50

Structure (SMILES)	pEC50
C[C@@H]1Cc2nn3c(c2CN1C(=O)Nc1cc(Cl)c(F)cc1F)C(=O)N(C)OC(CO)C3 (stereo in doubt) [Compound 090_E1, (4S*,9R)—N-(5-chloro-2,4-difluorophenyl)-4-(hydroxymethyl)-2,9-dimethyl-1-oxo-1,4,5,8,9,11-hexahydropyrido[4′,3′:3,4]pyrazolo[5,1-d][1,2,5]oxadiazepine-10(2H)-carboxamide]	7.00 to 9.00
C[C@@H]1Cc2nn3c(c2CN1C(=O)Nc1ccc(F)c(Cl)c1F)C(=O)N(C)OC(CO)C3 (stereo in doubt) [Compound 091_E1, (4S*,9R)—N-(3-chloro-2,4-difluorophenyl)-4-(hydroxymethyl)-2,9-dimethyl-1-oxo-1,4,5,8,9,11-hexahydropyrido[4′,3′:3,4]pyrazolo[5,1-d][1,2,5]oxadiazepine-10(2H)-carboxamide]	7.00 to 9.00
C[C@@H]1Cc2nn3c(c2CN1C(=O)Nc1ccc(F)c(Cl)c1)C(=O)N(C)OC(CN(C)C)C3 (stereo in doubt) [Compound 093_D2, (4R*,9R)—N-(3-chloro-4-fluorophenyl)-4-((dimethylamino)methyl)-2,9-dimethyl-1-oxo-1,4,5,8,9,11-hexahydropyrido[4′,3′:3,4]pyrazolo[5,1-d][1,2,5]oxadiazepine-10(2H)-carboxamide]	7.00 to 9.00
C[C@@H]1Cc2nn3c(c2CN1C(=O)Nc1ccc(F)c(Br)c1)C(=O)N(C)OC(CN(C)C)C3 (stereo in doubt) [Compound 094_D1, (4S*,9R)—N-(3-bromo-4-fluorophenyl)-4-((dimethylamino)methyl)-2,9-dimethyl-1-oxo-1,4,5,8,9,11-hexahydropyrido[4′,3′:3,4]pyrazolo[5,1-d][1,2,5]oxadiazepine-10(2H)-carboxamide]	7.00 to 9.00
C[C@@H]1Cc2nn3c(c2CN1C(=O)Nc1ccnc(Br)c1F)C(=O)N(C)OC(CN(C)C)C3 (stereo in doubt) [Compound 095_D1, (4S*,9R)—N-(2-bromo-3-fluoropyridin-4-yl)-4-((dimethylamino)methyl)-2,9-dimethyl-1-oxo-1,4,5,8,9,11-hexahydropyrido[4′,3′:3,4]pyrazolo[5,1-d][1,2,5]oxadiazepine-10(2H)-carboxamide]	6.30 to 7.00
